pEC50, pIC50: −log10 of the molar value. Counter-ions that a name gives are not always drawn.
Key:
mutant B-RAF = biological target: T1, mutant B-RAF (Homo sapiens, UniProt P15056, V600E); assay: Measurement of RAF activity (MEK-1 phosphorylation); format: biochemical; conditions: 50 μM ATP, MEK-1 substrate; read-out: Mut-B-Raf IC50
T1 construct: purchased Upstate (Charlottesville, Va.)
Description: Materials: The RAF kinases and the anti-phospho MEK1/2 antibody were from Upstate (Charlottesville, Va.). The RAF substrate used was full length N-terminal GST-MEK-1, which was expressed in E. coli and purified in-house by HPLC. All proteins were aliquoted and stored at −80° C. Superblock™ in phosphate buffered saline (PBS) blocking reagent was form Pierce (cat. #37515). ATP was from Roche (cat. # 19035722). Alkaline Phosphatase-tagged goat anti-rabbit antibody was from Pierce (cat. # 31340).
Methods: All RAF biochemical assays were performed using an assay buffer containing 20 mM MOPS, 5 mM EGTA, 37.5 mM MgCl2, 1 mM DTT and 50 μM ATP. There was 6.25 ng/well mutant B-RAF and 7.5 ng/well MEK-1 in the final assay conditions. Compounds were serially diluted in assay buffer containing 1% DMSO and 20 μl of test compound at a concentration 3-fold more than the final concentration, and were added to a polypropylene V-well reaction plate. Vehicle control wells received buffer only with DMSO at equivalent concentrations to the test wells. […] These reaction plates were incubated at room temperature for 30 minutes. Capture of MEK-1 was initiated by transferring 50 μl of the reaction mixture to a Nunc Maxisorp™ microplate that is designed for non-specific protein capture. After 30 minute capture of MEK-1 at room temperature, this plate was washed with TBST (6×200 μL/well) to fully terminate the reaction. The plate was then blocked for 1 hour by the addition of 100 μl/well of Superblock™ in phosphate buffered saline (PBS) blocking reagent. Plate was again washed with TBST (6 times with 200 μl/well), followed by the addition of 70 μl/well of Upstate anti-phospho MEK ½ diluted 1:1000 in Pierce Superblock (PBS). After a 60 minute incubation, this plate was washed with TBST (6 times with 200 μl/well), and 70 μl of the secondary antibody (Pierce Alkaline Phosphatase tagged goat anti-rabbit) prepared at 1:4000 in Superblock, were added. After a 45 minute incubation at room temperature, the wells of the microplate were washed with TBST (6 times with 200 μl/well), and thereafter 100 μl/well of Attophos™ fluorescent alkaline phosphatase substrate was added according to the manufacturer's instructions (JBL Scientific). Fluorescence was read on a Perkin Elmer Envision multilabel reader, using the following filters: Excitation Filter: CFP430 nM, Emission Filter: Emission Filter 579 nM.

p-Erk (A375) = assay: Cell-based phosphorylation assay with electroblotting readout; set-up: species or system human; conditions: Homo sapiens, A-375; A375 cells, 1 hr
Source text: Compounds of the present invention have been screened for their ability to inhibit all isoforms, both wild-type and mutant of RAF kinases (A-RAF, B-RAF and C-RAF) in general, and the mutant B-RAF (V600E) in particular in human cancer cells. A375 is a human melanoma cell line that harbors the most common B-RAF mutation-V600E found in human cancers. The ability of compounds to inhibit RAF kinases in this assay is correlated with the reduction of MEK and ERK phosphorylation, and is therefore a direct indicator of potential in vivo therapeutic activity.
Materials: A375 cells from ATCC were maintained at 37° C., 5% CO2 in DMEM media supplemented with 10% fetal bovine serum, penicillin/streptomycin and fungizone. (Invitrogen)
Methods: Test compounds were dissolved and diluted 1:1000 in DMSO. A375 cells were seeded in six-well tissue culture plates at 5-8×10^5 per well and cultured at 37° C. for 24 h. Cells were incubated with compounds for one hour before being lysed in EPage™ loading buffer (Invitrogen). Lysates were electrophoresed on 8% EPage™ gels and transferred to polyvinylidene difluoride membranes. After incubations with primary and secondary antibodies, the immunostained proteins were detected and quantitated by an Odyssey infrared imager (LI-COR). Analysis was performed by non-linear regression to generate a dose response curve. The calculated IC50 value was the concentration of the test compound that causes a 50% decrease in phospho-MEK and phospho-ERK levels. The primary antibodies used were anti-MEK (Stressgen), anti-ERK (BD Biosciences), anti-phospho-ERK and anti-phospho-MEK (Cell Signaling). The secondary antibodies used were IRDYE800 anti-rabbit, IRDYE 800 anti-mouse (Rockland), AlexaFluor680 anti-mouse and AlexaFluoro680 anti-rabbit (Invitrogen).
A375 cells were treated with 0, 12, 37, 111, 333 and 1000 nM of indicated compounds for 1 hr. The levels of Phospho-ERK and total-ERK were accessed by immunoblotting.

A375 = assay: Cell growth inhibition assay (MTS); format: cell-based; conditions: Homo sapiens, A-375, 72 h, A375, 72 hours
Description: (§1) Compounds of the present invention have been tested for activity against a variety of cancer cell lines. The ability of compounds to inhibit cell growth in this assay is correlated with the reduction of dehydrogenase enzyme activity found in metabolically active cells.
(§2) Materials: A large variety of cancer cells from ATCC were maintained at 37° C., 5% CO2 in DMEM media supplemented with 10% fetal bovine serum, penicillin/streptomycin and fungizone (Invitrogen). NCM460 (Incell), a normal colon epithelial cell line, and human mammary epithelial cells (Cambrex) were maintained at 37° C., 5% CO2 in DMEM and HEBM media (Cambrex), respectively.
(§3) Methods: Test compounds were dissolved and diluted to 300× in DMSO then diluted 1:40 in DMEM. Cells were seeded into 96-well tissue culture plates at 1-5×10^3 per well and cultured at 37° C. for 24 h. Cells were incubated with test compounds for 72 hours followed by incubation with tetrazolium compound (3-(4,5-dimethylthiazol-2-yl)-5-(3-carboxymethoxyphenyl)-2-(4-sulfophenyl)-2H-tetrazolium, inner salt; MTS) and the electron coupling reagent, phenazine methosulfate (PMS) for 4 hr. […] The measurement of the absorbance of the formazan was assessed using an ENVISION™ (Perkin Elmer) microplate reader at 492 nm. The calculated IC50 value is the concentration of the test compound that causes a 50% decrease in the absorbance.

DLD-1 = assay: Cell growth inhibition assay (MTS); format: cell-based; conditions: Homo sapiens; DLD-1, 72 hours
Description: as §1, §2, §3

RKO = assay: Cell growth inhibition assay (MTS); format: cell-based; conditions: Homo sapiens, 72 hours
Description: as §1, §2, §3

SK-MEL-28 = assay: Cell growth inhibition assay (MTS); format: cell-based; conditions: Homo sapiens; SK-MEL-28, 72 hours
Description: as §1, §2, §3

SK-MEL-2 = assay: Cell growth inhibition assay (MTS); format: cell-based; conditions: Homo sapiens; SK-MEL-2, 72 hours
Description: as §1, §2, §3

WM-266-4 = assay: Cell growth inhibition assay (MTS); format: cell-based; conditions: Homo sapiens; WM-266-4, 72 hours
Description: as §1, §2, §3

T1 sequence (P15056 whole entry V600E): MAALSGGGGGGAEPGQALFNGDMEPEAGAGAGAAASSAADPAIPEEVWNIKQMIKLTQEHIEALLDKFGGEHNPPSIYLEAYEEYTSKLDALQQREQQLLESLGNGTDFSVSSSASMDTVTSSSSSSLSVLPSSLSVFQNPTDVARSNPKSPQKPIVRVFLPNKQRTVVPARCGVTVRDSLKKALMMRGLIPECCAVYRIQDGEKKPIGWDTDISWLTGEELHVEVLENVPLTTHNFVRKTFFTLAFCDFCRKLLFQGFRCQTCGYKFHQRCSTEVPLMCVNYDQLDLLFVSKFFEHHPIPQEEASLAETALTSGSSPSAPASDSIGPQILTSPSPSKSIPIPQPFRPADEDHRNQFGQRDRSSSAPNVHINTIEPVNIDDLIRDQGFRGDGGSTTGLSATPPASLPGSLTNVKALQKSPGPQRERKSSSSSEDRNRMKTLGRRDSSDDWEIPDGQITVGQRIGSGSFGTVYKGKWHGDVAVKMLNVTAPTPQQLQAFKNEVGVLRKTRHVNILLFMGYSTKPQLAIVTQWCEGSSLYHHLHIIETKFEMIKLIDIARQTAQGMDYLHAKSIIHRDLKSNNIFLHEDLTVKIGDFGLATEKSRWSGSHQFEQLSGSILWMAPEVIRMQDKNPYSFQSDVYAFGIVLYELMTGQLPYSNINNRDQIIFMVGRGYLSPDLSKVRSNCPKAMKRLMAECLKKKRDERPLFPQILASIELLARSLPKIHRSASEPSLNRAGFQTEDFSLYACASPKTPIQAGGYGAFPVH

melting point | pIC50 (mutant B-RAF) | pEC50 (p-Erk (A375)) | GI50 (A375) | GI50 (DLD-1) | GI50 (SK-MEL-28) | GI50 (SK-MEL-2) | SMILES | GI50 (RKO) | GI50 (WM-266-4)
239 to 245 °C |  |  |  |  |  |  | O=P(O)(O)Oc1cccc(-c2nc3sccn3c2-c2cccc(N[C@@H]3CCCN(S(=O)(=O)c4ccc(Cl)cc4)C3)c2)c1 (as salt: phosphate) |  | 
 | 8.00 | 7.46 | 0.54 nM | 15400 nM | 1120 nM | 1800 nM | O=S(=O)(c1ccc(Cl)cc1)N1CCC[C@@H](Nc2nccc(-c3c(-c4cccc(O)c4)nc4occn34)n2)C1 [Compound 4, (R)-3-(5-(2-(1-(4-chlorophenylsulfonyl)piperidin-3-ylamino)pyrimidin-4-yl)imidazo[2,1-b]oxazol-6-yl)phenol] | 1810 nM | 15 nM
 | 8.10 | 7.09 | < 0.4 nM | 5520 nM | 88 nM | 519 nM | O=S(=O)(c1ccc(Cl)cc1)N1CCC(Nc2nccc(-c3c(-c4cccc(O)c4)nc4sccn34)n2)CC1 [Compound 7, 3-(5-(2-(1-(4-chlorophenylsulfonyl)piperidin-4-ylamino)pyrimidin-4-yl)imidazo[2,1-b]thiazol-6-yl)phenol] | 85 nM | 6 nM
 | 7.32 | 6.89 | < 0.4 nM | 1620 nM | 300 nM | 356 nM | O=S(=O)(c1ccc(F)cc1)N1CCC(Nc2nccc(-c3c(-c4cccc(O)c4)nc4occn34)n2)CC1 [Compound 9, 3-(5-(2-(1-(4-fluorophenylsulfonyl)piperidin-4-ylamino)pyrimidin-4-yl)imidazo[2,1-b]oxazol-6-yl)phenol] | 283 nM | < 0.4 nM
 | 7.32 | 7.28 | < 0.4 nM | 13900 nM | 555 nM | 2040 nM | O=S(=O)(C1CC1)N1CCC(Nc2nccc(-c3c(-c4cccc(O)c4)nc4occn34)n2)CC1 [Compound 11, 3-(5-(2-(1-(cyclopropylsulfonyl)piperidin-4-ylamino)pyrimidin-4-yl)imidazo[2,1-b]oxazol-6-yl)phenol] | 323 nM | 3 nM
 | 8.22 | 8.70 | 2 nM | 3000 nM | 74 nM | 170 nM | Cn1ccc(S(=O)(=O)N2CCC[C@@H](Nc3nccc(-c4c(-c5cccc(O)c5)nc5sccn45)n3)C2)n1 [Compound 14, (R)-3-(5-(2-(1-(1-methyl-1H-pyrazol-3-ylsulfonyl)piperidin-3-ylamino)pyrimidin-4-yl)imidazo[2,1-b]thiazol-6-yl)phenol] | 122 nM | 5 nM
 | 7.89 | 7.14 | < 0.4 nM | 9470 nM | 393 nM | 310 nM | Cn1ccc(S(=O)(=O)N2CCC(Nc3nccc(-c4c(-c5cccc(O)c5)nc5occn45)n3)CC2)n1 [Compound 20, 3-(5-(2-(1-(1-methyl-1H-pyrazol-3-ylsulfonyl)piperidin-4-ylamino)pyrimidin-4-yl)imidazo[2,1-b]oxazol-6-yl)phenol] | 372 nM | 2 nM
 | 9.02 | 7.47 | < 0.4 nM | 5920 nM | 33 nM | 42.8 nM | Cn1ccc(S(=O)(=O)N2CCC[C@@H](Nc3nccc(-c4c(-c5ccc(F)c(O)c5)nc5occn45)n3)C2)n1 [Compound 22, (R)-2-fluoro-5-(5-(2-(1-(1-methyl-1H-pyrazol-3-ylsulfonyl)piperidin-3-ylamino)pyrimidin-4-yl)imidazo[2,1-b]oxazol-6-yl)phenol] | 52 nM | < 0.4 nM
